Measurements reported in patent publication US20260365696A1, “INHIBITORS OF PTP1B / NCK1 INTERACTION AND METHODS OF MAKING AND USING SAME” (Radella Pharmaceuticals LLC, priority 2023, published 2026).
Non-standard residues stand in square brackets, D forms with d. Residues, ends and D or L forms follow the SMILES beside them. pGlu = O=C1CC[C@@H](C(=O)O)N1

Target: T1, SH3-2 domain of NCK1 (Homo sapiens, UniProt P16333)
T1 construct: To amplify the NCK1 SH3-2 domain, the primers; 10xHis tag with TEV site (vector pSF-OXB20-NH2-10HIS) (N, cleaved yes); made in house; host or cells: E. coli C43(DE3)
Experiment: Isothermal titration calorimetry (ITC) binding to NCK1 SH3-2 domain
Conditions: Alanine scanning of the MD17 15-mer peptide; ITC, 25 °C, pH 8.0
Text: Human PTP1B cDNA (NM_002827) and human NCK1 cDNA (NM 006153) were obtained (Origene, MD, USA). PTP1B Primers were designed to amplify the ORFs with added homology to the cut vector (EcoRI-digested pSF-OXB20-NH2-10HIS) in the forward primer sequence. To amplify full-length PTP1B, the primers ptp1b_FL_fwd ([…]) (SEQ ID NO: 159) and ptp1b_FL_rev ([…]) (SEQ ID NO: 160) were used. To amplify truncations of PTP1B, the following primer pairs were used: ptp1b_FL-Fwd and one of Ptplb_323stop_rev (gtgcaggaggagttcgaatt[…]) (SEQ ID NO: 161), ptp1b_344stop_rev ([…]) (SEQ ID NO: 162) or ptp1b_278stop_rev([…]) (SEQ ID NO: 163). To amplify the NCK1 SH3-2 domain, the primers ncklsh32_fwd ([…]) (SEQ ID NO: 164) and ncklsh32_rev ([…]) (SEQ ID NO: 165) were used. The amplified fragments were purified using a DNA clean-up kit according to manufacturer's instructions (QIAquick PCR purification kit, Qiagen).
To produce and purify fusion proteins, a culture was inoculated with 1% of overnight-cultured inoculum. Protein expression was carried out under the conditions described above, scaled up as necessary. Cells expressing the recombinant proteins were harvested in 50 mL tubes by centrifugation and stored at −80 °C. Cells containing the expressed gene product were thawed over ice and resuspended in Extraction buffer (10 mM Tris, pH 7.4 or 10 mM Sodium Phosphate, pH 8.0; 300 mM NaCl, 1 mM DTT or TCEP; 0-10% glycerol and 1 μg lysozyme) and sonicated over ice (4 °C) for 3 min total using pulses of 5 s with 15 s intervals, using a wide probe at 15 amplitude microns (Soniprep 150, MSE). Insoluble material was removed from the lysate by centrifugation at 20K rpm for 20-60 min at 4 °C. Supernatant was filtered through a 0.22 μm PVDF filter membrane and applied to 1-2 5 mL HisTrap FF Crude (Cytiva) prepacked Ni columns and connected to an AKTA explorer. After thorough washing with binding buffer (10 mM Tris, pH 7.4 or 10 mM Sodium Phosphate, pH 8.0; 300 mM NaCl; 1 mM DTT or TCEP and 25 mM Imidazole), protein was eluted using elution buffer (10 mM Tris, pH 7.4 or 10 mM Sodium Phosphate, pH 8.0; 150-300 mM NaCl; 1 mM DTT or TCEP and 250 mM Imidazole). Fractions containing protein of interest were confirmed by SDS PAGE. Protein was diluted with GF buffer (10 mM Tris, pH 7.4 or 10 mM Sodium Phosphate, pH 8.0; 150-300 mM NaCl) and subjected to TEV protease treatment overnight at 4-10 °C. Following proteolytic digestion, HIS-tag and TEV protease were removed by filtration through a clean 5 mL HisTrap FF Crude (Cytiva) prepacked Ni column. Protein was concentrated on a PES ultrafiltration device by centrifugation at 4000 rpm at 4 °C, and protein was polished via a HiPrep S-100 26/60 (Cytiva) using GF buffer (as described above). Purified proteins were concentrated using ultrafiltration, and protein concentration was determined using ultraviolet-visible spectroscopy. The integrity and identity of all proteins were verified by mass spectrographic analysis.
Isothermal titration calorimetry (ITC) was used to determine binding affinities for peptides against the SH3-2 domain of NCK1. Experiments were conducted at 25 °C using either a MicroCal iTC200 or MicroCal PEAQ-ITC calorimeter. The buffer used for all ITC experiments was 10 mM sodium [COMPOUND LEFT OUT] mM sodium chloride (pH=8.0). A series of peptides (concentration 3-7.5 mM) were titrated in to NCK1 SH3-2 domain (concentration 0.125-0.3 mM) using the following conditions: one injection of 0.2 μL followed by 19 injections of 2 μL, 120-150 seconds spacing between injections, at 25 °C. The data were fit using analysis software provided by the manufacturer and affinity values were calculated. The best fitting occurred when the number of sites was between 0.8 and 1.2. The experiments were repeated twice for a total of three times, and the average binding affinity for each peptide was generated. […]

Compound | Kd
Ac-PPAEHIPPPPRPPKR-NH2 [MSJ014] | ≤ 300 µM
Ac-PPPAHIPPPPRPPKR-NH2 [MSJ015] | ≤ 300 µM
Ac-PPPEHIPPPPAPPKR-NH2 [MH003] | ≤ 300 µM
Ac-PAPEHIPPPPRPPKR-NH2 [MSJ013] | ≤ 300 µM
Ac-PPPEHIPPPPRPPKA-NH2 [MH007] | > 1000 µM
Ac-APPEHIPPPPRPPKR-NH2 [MSJ012] | ≤ 300 µM
Ac-PPPEHIPPPPRPAKR-NH2 [MH005] | > 1000 µM
Ac-PPPEHIAPPPRPPKR-NH2 [MSJ018] | ≤ 300 µM
Ac-PPPEHIPPPPRPPAR-NH2 [MH006] | ≤ 300 µM

Same assay, conditions: Alanine scanning of the MD20 6-mer peptide; ITC, 25 °C, pH 8.0

Compound | Kd
Ac-PRPPAR-NH2 [MH012, Ac-PRPPAR-NH2] | 300 to 600 µM

Same assay, conditions: ITC

Compound | binding to NCK1 SH3-2 domain (in words)
Ac-PPPRPPK-NH2 [MH041, Ac-PPPRPPK-NH2] | abolished binding
Ac-PPRPPK-NH2 [MH035, Ac-PPRPPK-NH2] | abolished binding
Ac-PRPPK-NH2 [MH022, Ac-PRPPK-NH2] | abolished binding

Same assay, conditions: Modified MD18/MD20 peptides; ITC, 25 °C, pH 8.0

Compound | Kd
H-PPRPPKR-NH2 [MH075, H-PPRPPKR-NH2] | ≤ 300 µM
N=C(N)NCCC[C@H](NC(=O)[C@H](CCCCN)NC(=O)[C@@H]1CCCN1C(=O)[C@@H]1CCCN1C(=O)[C@H](CCCNC(=N)N)NC(=O)[C@@H]1CCCN1C(=O)[C@@H]1CCC(=O)N1)C(N)=O [MH043, H-Pyr-PRPPKR-NH2] ([pGlu]PRPPKR-NH2) | ≤ 300 µM
N=C(N)NCCC[C@H](NC(=O)[C@H](CCCCN)NC(=O)[C@@H]1CCCN1C(=O)[C@@H]1CCCN1C(=O)[C@H](CCCNC(=N)N)NC(=O)[C@@H]1CCC(=O)N1)C(N)=O [MH044, H-Pyr-RPPKR-NH2] ([pGlu]RPPKR-NH2) | > 1000 µM

Same assay, conditions: N- or C-terminal extensions; ITC, 25 °C, pH 8.0; 30-mers tested one to three times

Compound | Kd
Ac-PPRPPKRILE-NH2 [MH065] | ≤ 300 µM
Ac-PPPEHIPPPPRPPKRILEPH-NH2 [MH089] | ≤ 300 µM
Ac-PPRPPKRI-NH2 [MH063] | ≤ 300 µM
Ac-WKELSHEDLEPPPEHIPPPPRPPKR-NH2 [MH135] | ≤ 300 µM
Ac-HEDLEPPPEHIPPPPRPPKR-NH2 [MH090] | ≤ 300 µM

Same assay, conditions: Peptide truncation analysis; ITC, 25 °C, pH 8.0

Compound | Kd
CC(=O)N1CCC[C@H]1C(=O)N1CCC[C@H]1C(=O)N[C@@H](CCCCN)C(N)=O [MH015, Ac-PPK-NH2] (Ac-Pro-Pro-Lys-NH2) | > 1000 µM
Ac-IPPPPRPPKR-NH2 [MH026] | ≤ 300 µM
Ac-PPEHIPPPPRPPKR-NH2 [MH030] | ≤ 300 µM
Ac-PPPPRPPKR-NH2 [MH025] | ≤ 300 µM
Ac-PRPPK-NH2 [MH022, Ac-PRPPK-NH2] | > 1000 µM
Ac-PPPRPPKR-NH2 [MH024] | ≤ 300 µM
CC(=O)N1CCC[C@H]1C(=O)N[C@@H](CCCNC(=N)N)C(=O)N1CCC[C@H]1C(N)=O [MH019, Ac-PRP-NH2] (Ac-Pro-Arg-Pro-NH2) | > 1000 µM
CC(=O)N1CCC[C@H]1C(=O)N[C@@H](CCCCN)C(=O)N[C@@H](CCCNC(=N)N)C(N)=O [MH014, Ac-PKR-NH2] (Ac-Pro-Lys-Arg-NH2) | > 1000 µM

Same assay, conditions: Sliding window peptide analysis; ITC, 25 °C, pH 8.0

Compound | Kd
Ac-PPPRPPK-NH2 [MH041, Ac-PPPRPPK-NH2] | > 1000 µM
Ac-EHIPPP-NH2 [MH039, Ac-EHIPPP-NH2] | > 1000 µM
Ac-PPEHIP-NH2 [MH040, Ac-PPEHIP-NH2] | > 1000 µM
Ac-PPRPPK-NH2 [MH035, Ac-PPRPPK-NH2] | > 1000 µM

Same assay, conditions: exemplary control peptides; ITC, 25 °C, pH 8.0

Compound | Kd
Ac-PAVPPRP-NH2 [MH082, Ac-PAVPPRP-NH2, reference compound] | > 1000 µM
H-PAVPPRP-NH2 [MH081, H-PAVPPRP-NH2, reference compound] | > 1000 µM

Same assay, conditions: substitutions at position 1 of MD18; ITC, 25 °C, pH 8.0

Compound | Kd
Ac-SPRPPKR-NH2 [MH074, Ac-SPRPPKR-NH2] | ≤ 300 µM
Ac-FPRPPKR-NH2 [MH073, Ac-FPRPPKR-NH2] | ≤ 300 µM
Ac-NPRPPKR-NH2 [MH069, Ac-NPRPPKR-NH2] | ≤ 300 µM
Ac-KPRPPKR-NH2 [MH103, Ac-KPRPPKR-NH2] | ≤ 300 µM
Ac-VPRPPKR-NH2 [MH123, Ac-VPRPPKR-NH2] | ≤ 300 µM
Ac-DPRPPKR-NH2 [MH083, Ac-DPRPPKR-NH2] | ≤ 300 µM
Ac-GPRPPKR-NH2 [MH091, Ac-GPRPPKR-NH2] | ≤ 300 µM
Ac-IPRPPKR-NH2 [MH095, Ac-IPRPPKR-NH2] | ≤ 300 µM
Ac-WPRPPKR-NH2 [MH117, Ac-WPRPPKR-NH2] | ≤ 300 µM
Ac-HPRPPKR-NH2 [MH072, Ac-HPRPPKR-NH2] | ≤ 300 µM

Same assay, conditions: substitutions at position 3 of MD18; ITC, 25 °C, pH 8.0

Compound | Kd
Ac-PPDPPKR-NH2 [MH084, Ac-PPDPPKR-NH2] | ≤ 300 µM
Ac-PPQPPKR-NH2 [MH087, Ac-PPQPPKR-NH2] | ≤ 300 µM
Ac-PPSPPKR-NH2 [MH059, Ac-PPSPPKR-NH2] | ≤ 300 µM
Ac-PPVPPKR-NH2 [MH124, Ac-PPVPPKR-NH2] | ≤ 300 µM
Ac-PPIPPKR-NH2 [MH096, Ac-PPIPPKR-NH2] | ≤ 300 µM

Same assay, conditions: substitutions at position 4 of MD18 in a 7-mer; ITC, 25 °C, pH 8.0

Compound | Kd
Ac-PPRCPKR-NH2 [MH129, Ac-PPRCPKR-NH2] | > 1000 µM
Ac-PPRSPKR-NH2 [MH108, Ac-PPRSPKR-NH2] | > 1000 µM
Ac-PPRLPKR-NH2 [MH101, Ac-PPRLPKR-NH2] | 300 to 600 µM
Ac-PPRRPKR-NH2 [MH062, Ac-PPRRPKR-NH2] | 300 to 600 µM
Ac-PPRTPKR-NH2 [MH115, Ac-PPRTPKR-NH2] | 300 to 600 µM
Ac-PPRYPKR-NH2 [MH121, Ac-PPRYPKR-NH2] | 300 to 600 µM
Ac-PPRMPKR-NH2 [MH111, Ac-PPRMPKR-NH2] | > 1000 µM
Ac-PPREPKR-NH2 [MH130, Ac-PPREPKR-NH2] | > 1000 µM
Ac-PPRKPKR-NH2 [MH104, Ac-PPRKPKR-NH2] | 300 to 600 µM
Ac-PPRWPKR-NH2 [MH118, Ac-PPRWPKR-NH2] | > 1000 µM

Same assay, conditions: substitutions at position 6 of MD18; ITC, 25 °C, pH 8.0

Compound | Kd
Ac-PPRPPHR-NH2 [MH049, Ac-PPRPPHR-NH2] | ≤ 300 µM
Ac-PPRPPPR-NH2 [MH107, Ac-PPRPPPR-NH2] | ≤ 300 µM
Ac-PPRPPTR-NH2 [MH116, Ac-PPRPPTR-NH2] | ≤ 300 µM
Ac-PPRPPDR-NH2 [MH085, Ac-PPRPPDR-NH2] | 300 to 600 µM
Ac-PPRPPIR-NH2 [MH098, Ac-PPRPPIR-NH2] | ≤ 300 µM
Ac-PPRPPYR-NH2 [MH122, Ac-PPRPPYR-NH2] | ≤ 300 µM
Ac-PPRPPNR-NH2 [MH053, Ac-PPRPPNR-NH2] | ≤ 300 µM
Ac-PPRPPQR-NH2 [MH088, Ac-PPRPPQR-NH2] | ≤ 300 µM
Ac-PPRPPLR-NH2 [MH102, Ac-PPRPPLR-NH2] | ≤ 300 µM

Same assay, conditions: substitutions at position 8 of the 8-mer MH063; ITC, 25 °C, pH 8.0; certain peptides tested one to three times

Compound | Kd
Ac-PPRPPKRF-NH2 [MH150] | ≤ 300 µM
Ac-PPRPPKRG-NH2 [MH145] | ≤ 300 µM
Ac-PPRPPKRH-NH2 [MH146] | ≤ 300 µM
Ac-PPRPPKRD-NH2 [MH141] | ≤ 300 µM
Ac-PPRPPKRC-NH2 [MH142] | ≤ 300 µM
Ac-PPRPPKRY-NH2 [MH155] | ≤ 300 µM
Ac-PPRPPKRI-NH2 [MH063] | ≤ 300 µM
Ac-PPRPPKRK-NH2 [MH148] | ≤ 300 µM
Ac-PPRPPKRN-NH2 [MH140] | ≤ 300 µM
Ac-PPRPPKRL-NH2 [MH147] | ≤ 300 µM
